Residues, ends and D or L forms follow the SMILES beside them.

Data on three compounds can be found in US9255132B2, “Angiopoietin derived peptides” (Compugen Ltd., priority 2008, dated 2016).

For this test, the system named is avian chorioallantoic membrane (CAM). In kind it is in vivo, Leghorn fertilized eggs. The following applies: for inhibition of vessel length: peptide 0.5 and 5 nmol/CAM, 48 h after treatment, vs vehicle control. Here is the method: CGEN-G6 [SEQ ID NO: 6], CGEN-F9 [SEQ ID NO: 7], CGEN-F12 [SEQ ID NO: 8], CGEN-C6 [SEQ ID NO: 9], CGEN-A11 [SEQ ID NO: 10], and CGEN-G2 [SEQ ID NO: 11], were analyzed for their ability to affect angiogenesis using the in ovo avian chorioallantoic membrane (CAM) model of angiogenesis, which is widely used as a model to examine compounds affecting angiogenesis (Richardson and Singh 2003, Curr Drug Targets Cardiovasc Haematol Disord., 3(2):155-85). Two positive controls were used: fumagillin as a general anti-angiogenic compound, and Tie2 neutralizing antibody as anti-angiogenic inhibitor of the Ang/Tie2 pathway. Leghorn fertilized eggs were incubated for 4 days at 37° C., when a window was opened on the egg's shell, exposing the CAM. Two different doses of peptides (0.5 and 5 nmol/CAM), Tie-2 neutralizing antibody (R&D Systems, Cat#AF313, 10 μg/ml; 0.4 μg/CAM) or fumagillin (Tocris Bioscience, Cat #1768; 5 μg/CAM) were applied in a 40 μl volume inside an area of 1 cm^2 (restricted by a plastic ring) of the CAM on day 9 of embryo development. The appropriate vehicle controls were also tested. Forty-eight hours after treatment and subsequent incubation at 37° C., CAMs were fixed in situ, excised from the eggs, placed on slides and left to air-dry. Pictures were taken through a stereoscope equipped with a digital camera and the total length of the vessels was measured using image analysis software (NIH Image). For each group a total of 17-24 eggs from three different experiments were used. Data are presented as means±SEM and expressed as % of vehicle control. Statistical analysis (ANOVA followed by Dunnett's post-hoc test) was performed using Graph Pad.
FIG. 6 depict results obtained on vessel length with peptides CGEN-G6 [SEQ ID NO: 6], CGEN-F9 [SEQ ID NO: 7], CGEN-F12 [SEQ ID NO: 8], CGEN-C6 [SEQ ID NO: 9], CGEN-A11 [SEQ ID NO: 10], and CGEN-G2 [SEQ ID NO: 11], compared to Tie2 neutralizing antibody (Ab) and the anti-angiogenic compound fumagillin. Neutralizing Tie2 Ab blocked vessel length by 36%, while the angiogenesis inhibitor fumagillin blocked vessel length by 32%.

As to `CC(=O)N[C@@H](CCC(=O)O)C(=O)N[C@H](C(=O)N[C@@H](Cc1ccccc1)C(=O)N[C@@H](CC(C)C)C(=O)N[C@@H](CO)C(=O)N[C@H](C(=O)N[C@@H](CC(N)=O)C(=O)N[C@@H](CCCCN)C(=O)N[C@@H](CC(C)C)C(=O)N[C@@H](CCC(=O)O)C(=O)N[C@@H](CC(N)=O)C(=O)N[C@@H](CCC(N)=O)C(N)=O)[C@@H](C)O)[C@@H](C)O` [CGEN-A11, ETFLSTNKLENQ] (Ac-ETFLSTNKLENQ-NH2), the “inhibition of vessel length, rank among peptides” value (5 nmole) was “greatest effect”.
As to `CC[C@H](C)[C@H](NC(=O)[C@H](C)NC(=O)[C@H](CCCNC(=N)N)NC(=O)[C@H](CCC(=O)O)NC(=O)[C@H](CC(C)C)NC(=O)[C@H](CCCCN)NC(=O)[C@H](CCCCN)NC(=O)[C@H](CC(C)C)NC(=O)[C@H](Cc1c[nH]c2ccccc12)NC(=O)[C@H](CCC(N)=O)NC(=O)[C@@H](NC(=O)[C@H](CC(N)=O)NC(=O)[C@H](CC(N)=O)NC(=O)[C@H](CCC(N)=O)NC(=O)[C@H](CC(C)C)NC(=O)[C@H](C)NC(=O)[C@H](CCC(N)=O)NC(=O)[C@H](CCC(=O)O)NC(=O)[C@H](CC(C)C)NC(=O)[C@H](CCC(N)=O)NC(=O)[C@H](CCCCN)NC(=O)[C@@H](NC(=O)[C@H](CCC(N)=O)NC(=O)[C@H](CCC(N)=O)NC(=O)[C@@H](NC(C)=O)[C@@H](C)O)C(C)C)[C@@H](C)O)C(=O)N[C@@H](CCCCN)C(=O)N[C@H](C(=O)N[C@H](C(=O)N[C@@H](CC(C)C)C(N)=O)[C@@H](C)CC)[C@@H](C)O` [CGEN-G2] (Ac-TQQVKQLEQALQNNTQWLKKLERAIKTIL-NH2), the “inhibition of vessel length” value is on record as “did not inhibit angiogenesis”.
Still for that read-out and setting: to `CSCC[C@H](NC(=O)[C@H](CC(C)C)NC(=O)[C@H](CC(=O)O)NC(C)=O)C(=O)N[C@@H](CCC(=O)O)C(=O)N[C@H](C(=O)N[C@H](C(=O)N[C@@H](CC(N)=O)C(=O)N[C@@H](CC(N)=O)C(=O)N[C@@H](CC(C)C)C(=O)N[C@@H](CC(C)C)C(=O)N[C@H](C(=O)N[C@@H](CCSC)C(=O)N[C@@H](CCSC)C(=O)N[C@@H](CO)C(=O)N[C@H](C(=O)N[C@@H](CO)C(=O)N[C@@H](CC(N)=O)C(=O)N[C@@H](CO)C(=O)N[C@@H](C)C(=O)N[C@@H](CCCCN)C(=O)N[C@@H](CC(=O)O)C(N)=O)[C@@H](C)O)[C@@H](C)O)C(C)C)[C@@H](C)O` [CGEN-G6] (Ac-DLMETVNNLLTMMSTSNSAKD-NH2) belongs “did not inhibit angiogenesis”.
